Reference: paper PMC5218480 (PLoS ONE, 2017)

System: MV-4-11 cells
Test: Gene expression microarray analysis (Affymetrix PrimeView) and GSEA
Assay type: cell-based, human
Set-up: RFU PODN (11730768_x_at) / Fold change /veh PODN (11730768_x_at) / RFU LINC00158 (11744669_a_at) / Fold change /veh LINC00158 (11744669_a_at) / RFU DUSP10 (11751237_a_at) / Fold change /veh DUSP10 (11751237_a_at) / RFU ID3 (11757404_x_at) / Fold change /veh ID3 (11757404_x_at) / RFU PLEKHG5 (11737974_s_at) / Fold change /veh PLEKHG5 (11737974_s_at) / RFU LRRC4B (11730491_at) / Fold change /veh LRRC4B (11730491_at) / RFU GIMAP4 (11747438_a_at) / Fold change /veh GIMAP4 (11747438_a_at) / RFU KRT8 (11758183_x_at) / Fold change /veh KRT8 (11758183_x_at) / RFU CNN1 (11734310_a_at) / Fold change /veh CNN1 (11734310_a_at) / RFU VPS37D (11726825_at) / Fold change /veh VPS37D (11726825_at) / RFU C10orf10 (11716522_x_at) / Fold change /veh C10orf10 (11716522_x_at) / RFU KIR2DL2 /// KIR2DL4 /// KIR2DL5A /// KIR2DL5B /// KIR2DS1 /// KIR2DS2 /// KIR2DS3 /// KIR2DS4 /// KIR3DL3 /// KIR3DL3 /// KIR3DS1 (11738374_at) / Fold change /veh KIR2DL2 /// KIR2DL4 /// KIR2DL5A /// KIR2DL5B /// KIR2DS1 /// KIR2DS2 /// KIR2DS3 /// KIR2DS4 /// KIR3DL3 /// KIR3DL3 /// KIR3DS1 (11738374_at) / RFU C1QL1 (11718748_at) / Fold change /veh C1QL1 (11718748_at) / RFU TMPRSS4 (11747572_a_at) / Fold change /veh TMPRSS4 (11747572_a_at) / RFU HAMP (11756126_x_at) / Fold change /veh HAMP (11756126_x_at) / RFU RNFT2 (11725882_a_at) / Fold change /veh RNFT2 (11725882_a_at) / RFU NR4A2 (11747474_a_at) / Fold change /veh NR4A2 (11747474_a_at) / RFU ABCC12 (11746883_a_at) / Fold change /veh ABCC12 (11746883_a_at) / RFU TMEM136 (11760407_x_at) / Fold change /veh TMEM136 (11760407_x_at) / RFU CLDN22 /// WWC2 (11732394_at) / Fold change /veh CLDN22 /// WWC2 (11732394_at) / RFU HLA-DPB1 (11760878_x_at) / Fold change /veh HLA-DPB1 (11760878_x_at) / RFU SPINT1 (11716480_a_at) / Fold change /veh SPINT1 (11716480_a_at) / RFU GAP43 (11754022_s_at) / Fold change /veh GAP43 (11754022_s_at) / RFU A4GNT (11735810_at) / Fold change /veh A4GNT (11735810_at) / RFU PRB3 (11715151_x_at) / Fold change /veh PRB3 (11715151_x_at) / RFU TUBB4B (11761932_at) / Fold change /veh TUBB4B (11761932_at) / RFU CAPN14 (11732068_a_at) / Fold change /veh CAPN14 (11732068_a_at) / RFU TMCC2 (11721928_a_at) / Fold change /veh TMCC2 (11721928_a_at) / RFU IRGQ (11745062_a_at) / Fold change /veh IRGQ (11745062_a_at) / RFU FAM174B (11720279_a_at) / Fold change /veh FAM174B (11720279_a_at) / RFU TMPRSS4 (11748680_a_at) / Fold change /veh TMPRSS4 (11748680_a_at) / RFU FAM212B (11763350_a_at) / Fold change /veh FAM212B (11763350_a_at) / RFU PLEKHG5 (11743358_a_at) / Fold change /veh PLEKHG5 (11743358_a_at) / RFU ZSCAN30 (11745921_a_at) / Fold change /veh ZSCAN30 (11745921_a_at) / RFU CMKLR1 (11741424_a_at) / Fold change /veh CMKLR1 (11741424_a_at) / RFU LOC101060620 /// MAPK8IP1 (11723275_at) / Fold change /veh LOC101060620 /// MAPK8IP1 (11723275_at) / RFU SPTSSB (11747773_x_at) / Fold change /veh SPTSSB (11747773_x_at) / RFU PRSS12 (11739890_at) / Fold change /veh PRSS12 (11739890_at) / RFU BIN1 (11741810_x_at) / Fold change /veh BIN1 (11741810_x_at) / RFU WNT11 (11732464_a_at) / Fold change /veh WNT11 (11732464_a_at) / RFU C10orf10 (11716521_a_at) / Fold change /veh C10orf10 (11716521_a_at) / RFU C5orf56 (11738089_at) / Fold change /veh C5orf56 (11738089_at) / RFU CYB561 (11721691_x_at) / Fold change /veh CYB561 (11721691_x_at) / RFU ANKRD19P (11752326_a_at) / Fold change /veh ANKRD19P (11752326_a_at) / RFU OR2T12 /// OR2T33 /// OR2T8 (11738714_s_at) / Fold change /veh OR2T12 /// OR2T33 /// OR2T8 (11738714_s_at) / RFU VCAN (11748164_a_at) / Fold change /veh VCAN (11748164_a_at) / RFU JSRP1 (11732532_at) / Fold change /veh JSRP1 (11732532_at) / RFU KRTAP10-11 (11738290_x_at) / Fold change /veh KRTAP10-11 (11738290_x_at) / RFU MYO3A (11730013_a_at) / Fold change /veh MYO3A (11730013_a_at) / RFU EBF3 (11725865_a_at) / Fold change /veh EBF3 (11725865_a_at) / RFU CAMK2N1 (11719241_x_at) / Fold change /veh CAMK2N1 (11719241_x_at) / RFU C5orf56 (11738088_a_at) / Fold change /veh C5orf56 (11738088_a_at) / RFU OLFML3 (11715873_a_at) / Fold change /veh OLFML3 (11715873_a_at) / RFU LOC100653217 /// NTM (11731650_a_at) / Fold change /veh LOC100653217 /// NTM (11731650_a_at) / RFU MAPK11 (11762145_a_at) / Fold change /veh MAPK11 (11762145_a_at) / RFU FIZ1 (11724087_x_at) / Fold change /veh FIZ1 (11724087_x_at) / RFU OASL (11726364_x_at) / Fold change /veh OASL (11726364_x_at) / RFU SOX15 (11748057_x_at) / Fold change /veh SOX15 (11748057_x_at) / RFU CD79A (11719716_a_at) / Fold change /veh CD79A (11719716_a_at) / RFU HIST1H1D (11736915_at) / Fold change /veh HIST1H1D (11736915_at) / RFU CASKIN2 (11723855_a_at) / Fold change /veh CASKIN2 (11723855_a_at) / RFU LOC730098 (11760151_x_at) / Fold change /veh LOC730098 (11760151_x_at) / RFU OR4N2 (11742367_at) / Fold change /veh OR4N2 (11742367_at) / RFU PRRT2 (11749266_a_at) / Fold change /veh PRRT2 (11749266_a_at) / RFU SNX32 (11753110_a_at) / Fold change /veh SNX32 (11753110_a_at) / RFU CDHR5 (11726645_a_at) / Fold change /veh CDHR5 (11726645_a_at) / RFU RCAN1 (11760418_a_at) / Fold change /veh RCAN1 (11760418_a_at) / RFU FAM167A (11723789_a_at) / Fold change /veh FAM167A (11723789_a_at) / RFU FAM26E (11764081_at) / Fold change /veh FAM26E (11764081_at) / RFU ISYNA1 (11749810_s_at) / Fold change /veh ISYNA1 (11749810_s_at) / RFU ACY1 (11761880_at) / Fold change /veh ACY1 (11761880_at) / RFU 11764098_at / Fold change /veh 11764098_at / RFU SAMD14 (11745864_x_at) / Fold change /veh SAMD14 (11745864_x_at) / RFU NPB (11741838_a_at) / Fold change /veh NPB (11741838_a_at) / RFU TMPRSS6 (11731388_a_at) / Fold change /veh TMPRSS6 (11731388_a_at) / RFU KRTAP10-2 (11738614_at) / Fold change /veh KRTAP10-2 (11738614_at) / RFU ARHGAP8 /// PRR5-ARHGAP8 (11727945_x_at) / Fold change /veh ARHGAP8 /// PRR5-ARHGAP8 (11727945_x_at) / RFU KRTAP5-7 /// NADSYN1 (11734609_at) / Fold change /veh KRTAP5-7 /// NADSYN1 (11734609_at) / RFU RASL12 (11751679_a_at) / Fold change /veh RASL12 (11751679_a_at) / RFU CDKN2B (11736163_a_at) / Fold change /veh CDKN2B (11736163_a_at) / RFU PRF1 (11729649_at) / Fold change /veh PRF1 (11729649_at) / RFU, ZNF638 /// ZNF638-IT1 / Fold change vs veh, ZNF638 /// ZNF638-IT1 / RFU, PANK3 / Fold change vs veh, PANK3 / RFU, SH3YL1 / Fold change vs veh, SH3YL1 / RFU, ZEB2 / Fold change vs veh, ZEB2 / RFU, NRIP1 / Fold change vs veh, NRIP1 / RFU, PTTG1IP / Fold change vs veh, PTTG1IP / RFU, CAPN2 / Fold change vs veh, CAPN2 / RFU, MED14 / Fold change vs veh, MED14 / RFU, SNORA58 / Fold change vs veh, SNORA58 / RFU, C1orf63 / Fold change vs veh, C1orf63 / RFU, LRRFIP1 / Fold change vs veh, LRRFIP1 / RFU, NDUFAF7 / Fold change vs veh, NDUFAF7 / RFU, SLC12A2 / Fold change vs veh, SLC12A2 / RFU, IBTK / Fold change vs veh, IBTK / RFU, ESF1 / Fold change vs veh, ESF1 / Fold change vs veh, TMEM50B / RFU, TAOK1 / Fold change vs veh, TAOK1 / RFU, ACBD3 / Fold change vs veh, ACBD3 / RFU, TMA16 / Fold change vs veh, TMA16 / RFU, RWDD3 / Fold change vs veh, RWDD3 / RFU, BCAT1 / Fold change vs veh, BCAT1 / RFU, EDEM3 / Fold change vs veh, EDEM3 / RFU, TMEM33 / Fold change vs veh, TMEM33 / RFU, WDR75 / Fold change vs veh, WDR75 / RFU, AHCTF1 / Fold change vs veh, AHCTF1 / RFU, TFRC / Fold change vs veh, TFRC / RFU, ZDHHC17 / Fold change vs veh, ZDHHC17 / RFU, NOM1 / Fold change vs veh, NOM1 / RFU, ARL8B / Fold change vs veh, ARL8B / RFU, ZBTB11 / Fold change vs veh, ZBTB11 / RFU, TAMM41 / Fold change vs veh, TAMM41 / RFU, KIAA1704 /// LOC100996395 / Fold change vs veh, KIAA1704 /// LOC100996395 / RFU, ING1 / Fold change vs veh, ING1 / RFU, TRMT61B / Fold change vs veh, TRMT61B / RFU, FUBP3 / Fold change vs veh, FUBP3 / RFU, TP53 / Fold change vs veh, TP53 / RFU, TNKS2 / Fold change vs veh, TNKS2 / RFU, ZFP14 / Fold change vs veh, ZFP14 / RFU, ACTR2 / Fold change vs veh, ACTR2 / RFU, PPP3R1 / Fold change vs veh, PPP3R1 / RFU, PIK3R1 / Fold change vs veh, PIK3R1 / RFU, HNRNPA1 / Fold change vs veh, HNRNPA1 / RFU, RNF170 / Fold change vs veh, RNF170 / RFU, ZNF28 / Fold change vs veh, ZNF28 / RFU, RNGTT / Fold change vs veh, RNGTT / RFU, OGT / Fold change vs veh, OGT / RFU, BRD1 / Fold change vs veh, BRD1 / RFU, MARS / Fold change vs veh, MARS / RFU, ZNF655 / Fold change vs veh, ZNF655 / RFU, FAHD1 / Fold change vs veh, FAHD1 / RFU, BDP1 / Fold change vs veh, BDP1 / RFU, LRRCC1 / Fold change vs veh, LRRCC1 / RFU, ARID1A / Fold change vs veh, ARID1A / RFU, ZNF146 / Fold change vs veh, ZNF146 / RFU, ZNF330 / Fold change vs veh, ZNF330 / RFU, GPN3 / Fold change vs veh, GPN3 / RFU, C9orf123 / Fold change vs veh, C9orf123 / RFU, N4BP2L2 / Fold change vs veh, N4BP2L2 / RFU, ARFIP1 / Fold change vs veh, ARFIP1 / RFU, FAM179B / Fold change vs veh, FAM179B / RFU, BCL10 / Fold change vs veh, BCL10 / RFU, UHRF1BP1L / Fold change vs veh, UHRF1BP1L / RFU, BET1 / Fold change vs veh, BET1 / RFU, CNOT2 / Fold change vs veh, CNOT2 / RFU, ZNF268 / Fold change vs veh, ZNF268 / Fold change vs veh, ZNF507 / RFU, DGCR2 / Fold change vs veh, DGCR2 / RFU, WDSUB1 / Fold change vs veh, WDSUB1 / Fold change vs veh, HSP90B1 /// MIR3652 / RFU, ADSS / Fold change vs veh, ADSS / RFU, GK / Fold change vs veh, GK / RFU, ZNF148 / Fold change vs veh, ZNF148 / RFU, TAF9 / Fold change vs veh, TAF9 / RFU, SLC1A5 / Fold change vs veh, SLC1A5 / RFU, SLMO2 / Fold change vs veh, SLMO2 / RFU, ABCC4 / Fold change vs veh, ABCC4 / RFU, LOC101060439 /// RAP1B / Fold change vs veh, LOC101060439 /// RAP1B / RFU, RFX7 / Fold change vs veh, RFX7 / RFU, GTPBP10 / Fold change vs veh, GTPBP10 / RFU, CNEP1R1 / Fold change vs veh, CNEP1R1 / RFU, BIVM-ERCC5 /// ERCC5 / Fold change vs veh, BIVM-ERCC5 /// ERCC5 / RFU, ILF3 / Fold change vs veh, ILF3 / RFU 11762660_at / Fold change /veh 11762660_at / RFU VCAN (11757783_s_at) / Fold change /veh VCAN (11757783_s_at) / RFU DDX43 (11728927_at) / Fold change /veh DDX43 (11728927_at) / RFU KRT8 (11758188_x_at) / Fold change /veh KRT8 (11758188_x_at) / RFU NKD1 (11759106_at) / Fold change /veh NKD1 (11759106_at) / RFU SRD5A1 (11742802_a_at) / Fold change /veh SRD5A1 (11742802_a_at) / RFU TPSAB1 /// TPSB2 (11721975_s_at) / Fold change /veh TPSAB1 /// TPSB2 (11721975_s_at) / RFU GSTM3 (11746129_a_at) / Fold change /veh GSTM3 (11746129_a_at) / RFU IL23R (11737362_x_at) / Fold change /veh IL23R (11737362_x_at) / RFU TMEM51 (11727254_a_at) / Fold change /veh TMEM51 (11727254_a_at) / RFU PIWIL2 (11732686_x_at) / Fold change /veh PIWIL2 (11732686_x_at) / RFU ORM1 (11744905_x_at) / Fold change /veh ORM1 (11744905_x_at) / RFU CCDC152 (11743942_at) / Fold change /veh CCDC152 (11743942_at) / RFU ECM1 (11717891_a_at) / Fold change /veh ECM1 (11717891_a_at) / RFU IL23R (11748794_a_at) / Fold change /veh IL23R (11748794_a_at) / RFU TNFAIP8L3 (11732012_x_at) / Fold change /veh TNFAIP8L3 (11732012_x_at) / RFU MBOAT4 (11741988_at) / Fold change /veh MBOAT4 (11741988_at) / RFU 11764193_at / Fold change /veh 11764193_at / RFU TMEM53 (11763286_at) / Fold change /veh TMEM53 (11763286_at) / RFU MAGEB2 (11727129_at) / Fold change /veh MAGEB2 (11727129_at) / RFU TMEM200A (11744735_a_at) / Fold change /veh TMEM200A (11744735_a_at) / RFU CCDC152 (11751479_a_at) / Fold change /veh CCDC152 (11751479_a_at) / RFU FAM211A (11726209_a_at) / Fold change /veh FAM211A (11726209_a_at) / RFU RGS16 (11746705_a_at) / Fold change /veh RGS16 (11746705_a_at) / RFU VCAN (11755009_s_at) / Fold change /veh VCAN (11755009_s_at) / RFU RHOB (11743442_s_at) / Fold change /veh RHOB (11743442_s_at) / RFU RGS16 (11720943_a_at) / Fold change /veh RGS16 (11720943_a_at) / RFU RGS16 (11720944_at) / Fold change /veh RGS16 (11720944_at) / RFU, VPS4B / Fold change vs veh, VPS4B / RFU, CREB1 / Fold change vs veh, CREB1 / RFU, DNAJC13 / Fold change vs veh, DNAJC13 / RFU, GNAQ / Fold change vs veh, GNAQ / RFU, CDK5R1 / Fold change vs veh, CDK5R1 / RFU, ZRANB3 / Fold change vs veh, ZRANB3 / RFU, CUL4A / Fold change vs veh, CUL4A / RFU, CCNY / Fold change vs veh, CCNY / RFU, UFL1 / Fold change vs veh, UFL1 / RFU, COG3 / Fold change vs veh, COG3 / RFU, DIAPH2 / Fold change vs veh, DIAPH2 / RFU, SKA2 / Fold change vs veh, SKA2 / RFU, AFF3 / Fold change vs veh, AFF3 / RFU, LMF1 / Fold change vs veh, LMF1 / RFU, IPO11 / Fold change vs veh, IPO11 / RFU, DFFB / Fold change vs veh, DFFB / RFU, FOXP1 / Fold change vs veh, FOXP1 / RFU, CARD8 / Fold change vs veh, CARD8 / RFU, STRN3 / Fold change vs veh, STRN3 / RFU, ADK / Fold change vs veh, ADK / RFU, RASSF2 / Fold change vs veh, RASSF2 / RFU, WIPF1 / Fold change vs veh, WIPF1 / RFU, LARP1B / Fold change vs veh, LARP1B / RFU, RASA1 / Fold change vs veh, RASA1 / RFU, RB1 / Fold change vs veh, RB1 / RFU, PPFIA1 / Fold change vs veh, PPFIA1 / RFU, MAT2A / Fold change vs veh, MAT2A / RFU, CCT5 / Fold change vs veh, CCT5 / RFU, WDR92 / Fold change vs veh, WDR92 / RFU, CUX1 / Fold change vs veh, CUX1 / RFU, TTC7A / Fold change vs veh, TTC7A / RFU, TMEM135 / Fold change vs veh, TMEM135 / RFU, DEPTOR / Fold change vs veh, DEPTOR / RFU, CPM / Fold change vs veh, CPM / RFU, DNAJB6 / Fold change vs veh, DNAJB6 / RFU, CACNA2D3 / Fold change vs veh, CACNA2D3 / RFU, DTX4 / Fold change vs veh, DTX4 / RFU, TFCP2 / Fold change vs veh, TFCP2 / RFU, GMCL1 /// GMCL1P1 / Fold change vs veh, GMCL1 /// GMCL1P1 / RFU, AEBP2 / Fold change vs veh, AEBP2 / RFU, SNHG1 /// SNORD22 /// SNORD25 /// SNORD26 /// SNORD27 /// SNORD28 /// SNORD29 /// SNORD31 / Fold change vs veh, SNHG1 /// SNORD22 /// SNORD25 /// SNORD26 /// SNORD27 /// SNORD28 /// SNORD29 /// SNORD31 / Fold change (Aza/veh), C12orf56 (ProbeSet 11735607_a_at) / Fold change (ACY-1035/veh), C12orf56 (ProbeSet 11735607_a_at) / Fold change (Aza/veh), FGFR1OP (ProbeSet 11751329_s_at) / Fold change (ACY-1035/veh), FGFR1OP (ProbeSet 11751329_s_at) / Fold change (Aza/veh), VPS36 (ProbeSet 11739960_a_at) / Fold change (ACY-1035/veh), VPS36 (ProbeSet 11739960_a_at) / RFU SYPL1 (11715823_x_at) / Fold change /veh SYPL1 (11715823_x_at) / RFU IGFBP7 (11715501_s_at) / Fold change /veh IGFBP7 (11715501_s_at) / RFU REEP3 (11722064_at) / Fold change /veh REEP3 (11722064_at) / RFU IGLL1 (11728026_x_at) / Fold change /veh IGLL1 (11728026_x_at): dose or concentration left out as unconfirmed
Settings: MV-4-11 cells, 48 hours

Nc1ncn([C@@H]2O[C@H](CO)[C@@H](O)[C@H]2O)c(=O)n1 [azacitidine]
Fold change /veh HLA-DPB1 (11760878_x_at): 0.86
